Data published in ChEMBL document CHEMBL1150159, “Semisynthetic analogues of the microtubule-stabilizing agent discodermolide: preparation and biological activity” (J Nat Prod, 2002).

Key:
A549 = assay: Cytotoxicity against human A549 cells; format: functional, cell-based
P388 = assay: Cytotoxicity against mouse P388 cells; format: functional, cell-based

SMILES | IC50 (A549) | IC50 (P388)
C=C/C=C\[C@H](C)[C@H](OC(N)=O)[C@@H](C)[C@H](O)[C@@H](C)C/C(C)=C\[C@H](C)[C@@H](O)[C@@H](C)/C=C\[C@@H](O)C[C@@H]1OC(=O)C(C)=C[C@H]1C | 21.7 nM | 33.6 nM
CCCC[C@H](C)[C@H](OC(N)=O)[C@@H](C)[C@H](OC(C)=O)[C@@H](C)C/C(C)=C\[C@H](C)[C@@H](OC(C)=O)[C@@H](C)CCCC[C@@H]1OC(=O)[C@H](C)[C@@H](OC(C)=O)[C@H]1C | – | > 7050 nM
C=C/C=C\[C@H](C)[C@H](OC(N)=O)[C@@H](C)[C@H](OC(C)=O)[C@@H](C)C/C(C)=C\[C@H](C)[C@@H](OC(C)=O)[C@@H](C)/C=C\[C@@H](O)C[C@@H]1OC(=O)C(C)=C[C@H]1C | > 7590 nM | > 7590 nM
CCCC[C@H](C)[C@H](OC(N)=O)[C@@H](C)[C@H](O)[C@@H](C)C/C(C)=C\[C@H](C)[C@@H](O)[C@@H](C)CCCC[C@@H]1OC(=O)[C@H](C)[C@@H](O)[C@H]1C | 377 nM | 309 nM
CCCC[C@H](C)[C@H](OC(N)=O)[C@@H](C)[C@H](O)[C@@H](C)C/C(C)=C\[C@H](C)[C@@H](O)[C@@H](C)/C=C\[C@@H](O)C[C@@H]1OC(=O)[C@H](C)[C@@H](O)[C@H]1C | 8.4 nM | 10 nM
C=C/C=C\[C@H](C)[C@H](OC(N)=O)[C@@H](C)[C@H](OC(C)=O)[C@@H](C)C/C(C)=C\[C@H](C)[C@@H](OC(C)=O)[C@@H](C)/C=C\[C@H](C[C@@H]1OC(=O)C(C)=C[C@H]1C)OC(C)=O | > 7130 nM | 7080 nM
C=C/C=C\[C@H](C)[C@H](OC(N)=O)[C@@H](C)[C@H](OC(C)=O)[C@@H](C)C/C(C)=C\[C@H](C)[C@@H](O)[C@@H](C)/C=C\[C@@H](O)C[C@@H]1OC(=O)C(C)=C[C@H]1C | > 8100 nM | > 8100 nM
CCCC[C@H](C)[C@H](OC(N)=O)[C@@H](C)[C@H](O)[C@@H](C)CC(C)C[C@H](C)[C@@H](O)[C@@H](C)CC[C@@H](O)C[C@@H]1OC(=O)[C@H](C)[C@@H](O)[C@H]1C (stereo partly drawn) | > 8290 nM | > 8290 nM
CCCC[C@H](C)[C@H](OC(N)=O)[C@@H](C)[C@H](O)[C@@H](C)C/C(C)=C\[C@H](C)[C@@H](O)[C@@H](C)CC[C@@H](O)C[C@@H]1OC(=O)[C@H](C)[C@@H](O)[C@H]1C | 67.7 nM | 33.8 nM
C=C/C=C\[C@H](C)[C@H](OC(N)=O)[C@@H](C)[C@H](O)[C@@H](C)C/C(C)=C\[C@H](C)[C@H]1OC(=O)C=C[C@@H]1C | 6770 nM | 3690 nM
C=C/C=C\[C@H](C)[C@H](O)[C@@H](C)[C@H](O)[C@@H](C)C/C(C)=C\[C@H](C)[C@H]1OC(=O)C=C[C@@H]1C | > 12800 nM | > 12800 nM
C=C/C=C\[C@H](C)[C@H](OC(N)=O)[C@@H](C)[C@H](O)[C@@H](C)C/C(C)=C\[C@H](C)[C@@H](OC(C)=O)[C@@H](C)/C=C\[C@@H](O)C[C@@H]1OC(=O)C(C)=C[C@H]1C | 3130 nM | 519 nM
